Biological target: T1, 14-3-3-E (Rattus norvegicus, UniProt P62260)
T1 construct: isothermal dose–response (ITDR) CETSA curve of 14-3-3-E at 63 °C (B) in PC12^G93A cell lysate; endogenous in cells; host or cells: PC12-SOD1^G93A YFP cell lysate (freeze/thaw)
T1 sequence (P62260 1-255): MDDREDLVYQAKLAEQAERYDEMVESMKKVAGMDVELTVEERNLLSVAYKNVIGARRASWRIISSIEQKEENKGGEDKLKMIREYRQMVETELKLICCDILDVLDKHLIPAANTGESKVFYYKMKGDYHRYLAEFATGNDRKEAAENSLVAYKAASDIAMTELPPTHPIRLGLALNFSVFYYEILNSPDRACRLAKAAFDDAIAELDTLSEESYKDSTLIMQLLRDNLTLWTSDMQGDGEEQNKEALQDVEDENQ
Experiment: Cellular thermal shift assay (CETSA) in PC12^G93A cell lysate
Type: binding
Conditions: n = 3
Method: Before the experiments were initiated, PC12-SOD1^G93A YFP cells were maintained in DMEM high-glucose media supplemented with 10% horse serum, 5% Tet-approved FBS, 1% Pen-strep, 1X L-glutamine, 200 μg/mL hygromycin, and 100 μg/mL G418. On the day preceding the experiments, the cells were plated onto two separate 10 cm dishes at a concentration of 10 × 10^6 cells per 10 mL of the supplemented media. They were then incubated overnight at 37 °C in a CO2 incubator (5% CO2) until they achieved 90–95% confluency.
The cell medium was subsequently removed, and the cells were rinsed with 1X PBS before being detached using 1 mL of 1X trypsin. To this, 5 mL of 1X PBS solution was added, and the cells were then resuspended, transferred to two separate 15 mL conical tubes, and centrifuged at 1100 rpm for 3 min. The supernatant was discarded, and the cells were resuspended in 1 mL of 1X PBS containing a […] (EDTA-free) (Sigma-Aldrich, 1:100 v/v). […]
SDS PAGE was conducted using a 15-well Novex Bis-Tris 4–12% prepacked gel and 1X MES-SDS gel running buffer (comprising 50 mM MES, 50 mM Tris, 1 mM EDTA, and 0.1% SDS) at a constant voltage of […] over a duration of 2 h. […] These raw immunoblot images were analyzed by using ImageJ software. Data (expressed as relative band intensity %) were normalized relative to the samples that were incubated at the lowest temperature. […]

O=c1cc(COc2cc(Cl)cc(Cl)c2)[nH][nH]1 [P2]
CETSA melting curve: 14-3-3-E in the soluble fraction versus DMSO control (500 μM P2, cell lysate, difference between 60 and 64 °C, maximum at 63 °C): markedly reduced the presence of 14-3-3-E in the soluble fraction | ITDR CETSA: relative band intensity of 14-3-3-E in the soluble fraction (63 °C, increasing concentrations, cell lysate): clear decrease in the relative band intensity of 14-3-3-E
